These results are taken from patent publication US6207399A, “Methods of determining endogenous thrombin potential (ETP) and thrombin substrates for use in said methods” (Hemker; Hendrik Coenraad, priority 1995, dated 2001).

Like-named read-outs stand apart in the source and are kept apart here. Square brackets hold non-standard residues; d marks the D form. Peptide text beside a SMILES is read from it. * marks the point of attachment. pNA = O=[N+]([O-])c1ccc(N*)cc1; Nle = CCCC[CH](N)C(=O)O; Pip = O=C(O)[CH]1CCCCN1; Boc = CC(C)(C)OC(=O)*; Bz = O=C(c1ccccc1)*; CH2Cl = ClC*

Series [1] deals with T1, thrombin (Homo sapiens, UniProt P00734). The settings on record: Angliker et al; cited from earlier work.
In series [2] the test system is thrombin. The settings on record: Svendsen et al; cited from earlier work.
In the next series the test system is plasmin. The settings on record: Serbio patent EP-B-0 280 610; cited from earlier work.
In series [3] the test system is Factor Xa. The conditions noted are these: Serbio patent EP-B-0 280 610; cited from earlier work.
Series [4] relates to thrombin. The conditions noted are these: Serbio patent EP-B-0 280 610; cited from earlier work.
For the next series, the system named is protein C. The settings on record: Serbio patent EP-B-0 280 610; cited from earlier work.
The target in series [5] is T2, human α-thrombin (Homo sapiens, UniProt P00734).
T2 construct: Pure human α-thrombin; gift of Dr. T. Lindhout (University of Limburg, Maastricht)
Put plainly: Kinetics of hydrolysis of substrates by human α-thrombin in buffer A at 37° C. (Example 2, Table 1). It counts as biochemical. In outline: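 p-Nitroaniline release was followed at 405 nm (dual wavelength 405-546 nm) in buffer A at 37° C, with substrate at 1 to 2000 μM (at least six levels) preincubated 5 min before enzyme at 0.5 to 100 nM. Km and kcat came from initial velocities fitted to Michaelis-Menten by linear regression, from one or two experiments.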

The target in series [6] is T3, factor Xa (Homo sapiens, UniProt P00742).
T3 construct: human factor Xa samples; gift of Dr. T. Lindhout (University of Limburg, Maastricht)
In words: Kinetic parameters of hydrolysis of the substrates by factor Xa in buffer A at 37° C. (Example 4, Table 3). The conditions noted are these: buffer A, 37° C., 50 nM factor Xa. It counts as biochemical. In outline:
(§1)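 p-Nitroaniline release followed at 405 nm in buffer A at 37 °C, with at least six substrate levels of 200–2000 μM. Thrombin at 0.5–50 nM, factor Xa at 50 nM; Km and kcat from initial velocities by linear regression on Michaelis-Menten.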

For series [7], the target named is T3, factor Xa. In words: Kinetics of hydrolysis of substrates by human factor Xa in buffer A at 37° C. (Example 2, Table 2). It counts as biochemical. The method, then: Kinetic parameters: The hydrolysis experiments were run in buffer A at 37° C. The liberation of p-nitroaniline was monitored at 405 nm in a dual wavelength (405-546 nm) spectrophotometer made in our workshop, using a personal computer for data recording. In a polystyrene microcuvette (total volume 500 μL), buffer A and substrate solution were added to obtain a final substrate concentration between 1 to 2000 μM. After 5 min of incubation at 37° C., enzyme solution was added to achieve a final concentration between 0.5 to 100 nM. The measurement was carried out at 37° C. in a thermostated cuvette-holder. The Michaelis constant (Km) and the catalytic constant (kcat) were obtained by measuring initial reaction velocities at different substrate concentrations. The data obtained were fitted by linear regression on the Michaelis-Menten equation.
Kinetic parameters: In a preliminary experiment, the substrate was hydrolyzed under the following conditions: enzyme concentration: 10 to 20 nM, substrate concentration: 200 μM in buffer A to get an impression of the initial velocity. […] The results are given in table 1 and 2 for thrombin and factor Xa respectively. The Km and kcat for each substrate were determined from the initial velocities measured for at least six substrate concentrations in the concentration range as given. The enzyme concentration used gives a good signal to noise ratio. The data given are obtained from one or two experiments. The data from table 1 and 2 were only used as the first selection criterion to get a rough impression of the hydrolysis behaviour. Notwithstanding the preliminary character of the measurement it was helpful in the design of the substrates of our interest.

The target of series [8] is T1, thrombin. In words: Kinetic parameters of hydrolysis of the substrates by thrombin in buffer A at 37° C. (Example 4, Table 3). The arrangement: Pure human α-thrombin; gift of Dr. T. Lindhout (University of Limburg, Maastricht). It counts as biochemical. The conditions noted are these: buffer A, 37° C. A digest of the protocol: as §1
Series [9] can be described thus: Water solubility of the substrates. It counts as physicochemical.
Series [10] has as its target T1, thrombin. Also noted: Pure human α-thrombin; gift of Dr. T. Lindhout (University of Limburg, Maastricht). The settings on record: SQ68 reference, same values as Table 1 entry 17 (from Hemker et al. 1993); cited from earlier work.
In series [11] the target is T3, factor Xa. The conditions noted are these: entry marked ^a (Hemker et al. 1993, footnote of Table 1); cited from earlier work.
The target of series [12] is T3, factor Xa. The conditions noted are these: SQ68 reference, same values as Table 2 entry 17; cited from earlier work.
Series [13] deals with T2, human α-thrombin. The conditions noted are these: from Hemker H.C. et al. (1993); cited from earlier work.

T3 sequence (P00742 41-179 limits assumed): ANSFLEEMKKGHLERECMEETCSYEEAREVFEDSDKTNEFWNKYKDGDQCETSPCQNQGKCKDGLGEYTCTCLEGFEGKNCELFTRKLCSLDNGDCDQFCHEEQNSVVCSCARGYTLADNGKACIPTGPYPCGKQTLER
T3 sequence (P00742 235-488 limits assumed): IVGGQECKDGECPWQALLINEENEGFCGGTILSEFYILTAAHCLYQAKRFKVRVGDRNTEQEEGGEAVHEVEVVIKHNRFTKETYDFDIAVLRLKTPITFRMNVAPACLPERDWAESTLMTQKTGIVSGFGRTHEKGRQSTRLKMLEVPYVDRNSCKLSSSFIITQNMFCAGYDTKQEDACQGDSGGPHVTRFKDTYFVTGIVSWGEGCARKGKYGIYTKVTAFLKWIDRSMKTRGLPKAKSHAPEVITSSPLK

Turning to `CC(=O)NCC(=O)N[C@H](C(=O)N[C@@H](CCCNC(=N)N)C(=O)CCl)C(C)C` [Ac-Gly-Val-Arg-CH2 Cl] (Ac-Gly-Val-Arg-CH2Cl), the “ki value, times lower than that for D-Phe-Pro-Arg-CH2 Cl” value on thrombin [1] was 3×10^4.

For `CC(C)[C@H](NC(=O)[C@@H](N)Cc1ccccc1)C(=O)N[C@@H](CCCNC(=N)N)C(=O)Nc1ccc([N+](=O)[O-])cc1` [H-Phe-Val-Arg-p-nitroanilide] (H-Phe-Val-Arg-pNA), the “factor by which poorer substrate for thrombin than Benzoyl-Phe-Val-Arg-p-nitroanilide” value in the series with thrombin [2] is given as at least 100.

For `COC(=O)CC(=O)N1C[C@H](O)C[C@H]1C(=O)N[C@@H](CCCNC(=N)N)C(=O)Nc1ccc([N+](=O)[O-])cc1` [CH3 O--CO--CH2 --CO-L-4Hyp-L-Arg-pNA], in the series on plasmin, the “rate of hydrolysis for plasmin” value is reported as 1.12. For the same compound, the “rate of hydrolysis for Factor Xa” value in the series with Factor Xa [3] is listed as 0.34. In addition, in the series on thrombin [4], the “rate of hydrolysis for thrombin” value is 0.61. The “rate of hydrolysis for protein C” value in the series with protein C is 0.88.

As usually defined, the Km is the substrate concentration at which the rate is half of its maximum. For orientation: kcat means the number of substrate molecules converted per active site and unit of time at saturation. With `CC(C)[C@H](NC(=O)CN)C(=O)N[C@@H](CCCNC(=N)N)C(=O)Nc1ccc([N+](=O)[O-])cc1.Cl.Cl` [2HCl.H-Gly-Val-Arg-pNA] (H-Gly-Val-Arg-pNA), on human α-thrombin [5], the Km was 1640 µM, the kcat was 16.54 s⁻¹ and the “kcat /Km” value turned out to be 10100 M/s. In addition, on factor Xa [6], the “Factor Xa kcat” value stood at 2.84 s⁻¹, the “Factor Xa kcat /Km” value came out at 649 M/s and the Km came out at 4380 µM. For the same compound, on factor Xa [7], the Km amounted to 2680 µM, the kcat came to 3.51 s⁻¹ and the “kcat /Km” value was 1310 M/s. For the same compound, on thrombin [8], the Km amounted to 3230 µM, the Thrombin kcat turned out to be 25.4 s⁻¹ and the “Thrombin kcat /Km” value turned out to be 7880 M/s.

Regarding `COC(=O)CC(=O)N1CCC[C@H]1C(=O)N[C@@H](CCCNC(=N)N)C(=O)Nc1ccc([N+](=O)[O-])cc1` [CH3 O--CO--CH2 --CO-L-Pro-L-Arg-pNA], the “rate of hydrolysis for plasmin” value in the series on plasmin is recorded as 0.230. Also, the “rate of hydrolysis for Factor Xa” value in the series on Factor Xa [3] is on record as 0.14. Also, the “rate of hydrolysis for thrombin” value in the series on thrombin [4] is 0.68. The “rate of hydrolysis for protein C” value in the series with protein C was 0.83.

As to `COC(=O)CC(=O)N[C@H](C(=O)N[C@@H](CCCNC(=N)N)C(=O)Nc1ccc([N+](=O)[O-])cc1)C(C)C.Cl` [MZ-Val-Arg-pNA.HCl], the “rate of hydrolysis for plasmin” value in the series with plasmin was 0.08. At human α-thrombin [5], the Km was 1010 µM, the kcat was 14.4 s⁻¹ and the “kcat /Km” value worked out at 14300 M/s. Further, on factor Xa [6], the “Factor Xa kcat” value is 10.1 s⁻¹, the “Factor Xa kcat /Km” value came out at 2470 M/s and the Km was 4080 µM. Further, the “rate of hydrolysis for Factor Xa” value with Factor Xa [3] was 0.03. Also, the “rate of hydrolysis for thrombin” value with thrombin [4] is 0.21. On factor Xa [7], the Km came out at 2570 µM, the kcat is 6.42 s⁻¹ and the “kcat /Km” value was determined as 2500 M/s. In the series on protein C, the “rate of hydrolysis for protein C” value is 0.12. Moreover, on thrombin [8], the Km came to 1010 µM, the Thrombin kcat was determined as 14.4 s⁻¹ and the “Thrombin kcat /Km” value worked out at 14300 M/s.

Turning to `CC(C)[C@H](NC(=O)c1ccccc1)C(=O)N[C@@H](CCCNC(=N)N)C(=O)Nc1ccc([N+](=O)[O-])cc1` [benzoyl-Val-Arg-p-nitroanilide] (Bz-Val-Arg-pNA), in the series on thrombin [2], the “factor by which poorer substrate for thrombin than Benzoyl-Phe-Val-Arg-p-nitroanilide” value is on record as at least 100.

On to `CCCC[C@H](NC(=O)[C@@H]1CCCN1C(=O)[C@H](N)Cc1ccccc1)C(=O)Nc1ccc([N+](=O)[O-])cc1.Cl` [Substrate 7] (H-[dF]-Pro-[Nle]-pNA), for which the water solubility entry in series [9] is “restricted water solubility”.

`COC(=O)CC(=O)NC(C)(C)C(=O)N[C@@H](CCCNC(=N)N)C(=O)Nc1ccc([N+](=O)[O-])cc1.Cl` [MZ-Aib-Arg-pNA.HCl, malonyl-α-aminoisobutyryl-arginine p-nitroanilide methyl ester monohydrochloride]: the “rate of hydrolysis for plasmin” value in the series on plasmin is listed as 0.02. Further, on thrombin [10], the Km is 830 µM, the Thrombin kcat is 0.46 s⁻¹ and the “Thrombin kcat /Km” value was 554 M/s. Further, the “rate of hydrolysis for Factor Xa” value in the series on Factor Xa [3] is given as 0.01. Also, in the series with thrombin [4], the “rate of hydrolysis for thrombin” value is on record as 0.04. Moreover, at factor Xa [11], the Km is 3940 µM, the kcat is 2.9 s⁻¹ and the “kcat /Km” value was 738 M/s. Also, on factor Xa [12], the “Factor Xa kcat” value is 2.9 s⁻¹, the “Factor Xa kcat /Km” value is 738 M/s and the Km is 3940 µM. For the same compound, the “rate of hydrolysis for protein C” value in the series with protein C is given as 0.03. On human α-thrombin [13], the Km was 830 µM, the kcat was 0.46 s⁻¹ and the “kcat /Km” value is 554 M/s.

For the compound `CC(C)[C@H](NC(=O)CNC(=O)OC(C)(C)C)C(=O)N[C@@H](CCCNC(=N)N)C(=O)Nc1ccc([N+](=O)[O-])cc1.Cl` [Boc-Gly-Val-Arg-pNA.HCl] (Boc-Gly-Val-Arg-pNA), at human α-thrombin [5], the Km stood at 244 µM, the kcat was determined as 11.2 s⁻¹ and the “kcat /Km” value is 45900 M/s. Moreover, on factor Xa [6], the “Factor Xa kcat” value came to 3.51 s⁻¹, the “Factor Xa kcat /Km” value worked out at 1310 M/s and the Km was 2680 µM. Besides, at factor Xa [7], the Km was determined as 959 µM, the kcat is 1.90 s⁻¹ and the “kcat /Km” value is 1980 M/s. Also, on thrombin [8], the Km stood at 244 µM, the Thrombin kcat is 11.2 s⁻¹ and the “Thrombin kcat /Km” value is 45900 M/s.

With `Cl.N=C(N)NCCC[C@H](NC(=O)CNS(=O)(=O)c1ccc2ccccc2c1)C(=O)Nc1ccc([N+](=O)[O-])cc1` [Substrate 25], in series [9], the water solubility result was “restricted water solubility”.

For `CC(C)[C@H](NC(=O)[C@H](Cc1ccccc1)NC(=O)c1ccccc1)C(=O)N[C@@H](CCCNC(=N)N)C(=O)Nc1ccc([N+](=O)[O-])cc1` [Benzoyl-Phe-Val-Arg-p-nitroanilide] (Bz-Phe-Val-Arg-pNA), the “kcat /Km” value with thrombin [2] was 90×10^-7 [(NIH units/liter)s]^-1.

With `CCCCC(NC(=O)C1CCCCN1C(=O)C(N)Cc1ccccc1)C(=O)Nc1ccc([N+](=O)[O-])cc1.Cl` (centres unmarked) [Substrate 6] (H-Phe-[Pip]-[Nle]-pNA; configuration not given here), the water solubility result in series [9] is given as “restricted water solubility”.
